From patent US20120214822A1 (ASTRAZENECA AB, priority 2007, published 2012)

Target: human active recombinant p38α-6His tagged (Homo sapiens, UniProt Q16539)
Assay: P38 Alpha Enzyme Assay (AlphaScreen, biotinylated-ATF2 substrate);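 also: 0.5 nM final p38α, reaction started with ATP and run 45 min at 37 °C, phospho-ATF2 read by antibody-based AlphaScreen, background wells quenched with EDTA before ATP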
Format: biochemical
Settings: p38 alpha enzyme inhibition; means of replicate determinations; 4 h pre-incubation at 37° C.; SD of assay 0.2-0.3 log units

Sequence of human active recombinant p38α-6His tagged (Q16539 whole entry): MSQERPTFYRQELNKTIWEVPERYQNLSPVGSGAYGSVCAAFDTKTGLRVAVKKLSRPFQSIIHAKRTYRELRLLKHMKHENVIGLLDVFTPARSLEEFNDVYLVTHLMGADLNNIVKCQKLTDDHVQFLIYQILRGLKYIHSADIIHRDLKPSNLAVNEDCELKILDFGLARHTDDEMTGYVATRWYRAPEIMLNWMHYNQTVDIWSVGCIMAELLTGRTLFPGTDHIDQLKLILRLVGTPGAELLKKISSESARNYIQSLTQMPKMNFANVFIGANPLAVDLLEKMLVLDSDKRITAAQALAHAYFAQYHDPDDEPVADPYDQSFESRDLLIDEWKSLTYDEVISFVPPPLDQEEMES

Row | SMILES | pIC50 | IC50
1 | Cc1ccc(C(=O)NC2CC2)cc1-n1ccnc(N[C@@H](c2ccccc2)[C@@H](C)CN2CCN(C(C)C)CC2)c1=O [Example 171, N-Cyclopropyl-4-methyl-3-[3-[[(1R,2S)-2-methyl-3-[4-(1-methylethyl)-1-piperazinyl]-1-phenylpropyl]amino]-2-oxo-1(2H)-pyrazinyl]-benzamide] | 8.8 | 
2 | Cc1ccc(C(=O)NC2CC2)cc1-n1ccnc(NC2(c3ccccc3OCCN3CCCN(C)CC3)CC2)c1=O [Example 235, N-Cyclopropyl-3-[3-[[1-[2-[2-(hexahydro-4-methyl-1H-1,4-diazepin-1-yl)ethoxy]phenyl]cyclopropyl]amino]-2-oxo-1(2H)-pyrazinyl]-4-methyl-benzamide] | 9.7 | 
3 | CNCCOc1ccccc1C(C)(C)Nc1nccn(-c2cc(C(=O)NC3CC3)ccc2Cl)c1=O [Example 330, 4-Chloro-N-cyclopropyl-3-[3-[(1-methyl-1-{2-[2-(methylamino)ethoxy]phenyl}ethyl)amino]-2-oxopyrazin-1(2H)-yl]benzamide] | 9.4 | 
4 | CCNCCOc1ccccc1C(C)(C)Nc1nccn(-c2cc(C(=O)NC3CC3)cc(F)c2C)c1=O [Example 252, N-Cyclopropyl-3-[3-[[1-[2-[2-(ethylamino)ethoxy]phenyl]-1-methylethyl]amino]-2-oxo-1(2H)-pyrazinyl]-5-fluoro-4-methyl-benzamide] | 10.1 | 
5 | CNCCOc1ccccc1C(C)(C)Nc1nccn(-c2cc(C(=O)NC(C)C)ccc2C)c1=O [Example 223, 4-Methyl-N-(1-methylethyl)-3-[3-[[1-methyl-1-[2-[2-(methylamino)ethoxy]phenyl]ethyl]amino]-2-oxo-1(2H)-pyrazinyl]-benzamide] | 8.1 | 
6 | CNCCOc1ccc(F)cc1C1(Nc2nccn(-c3cc(C(=O)NC4CC4)cc(F)c3C)c2=O)CC1 [Example 281, N-Cyclopropyl-3-fluoro-5-{3-[(1-{5-fluoro-2-[2-(methylamino)ethoxy]phenyl}cyclopropyl)amino]-2-oxopyrazin-1(2H)-yl}-4-methylbenzamide] | 10.4 | 
7 | Cc1ccc(C(=O)NC2CC2)cc1-n1ccnc(N[C@@H](c2cccc3ccccc23)[C@@H](C)CN2CCCC2)c1=O [Example 144, N-Cyclopropyl-4-methyl-3-[3-[[(1R,2S)-2-methyl-1-(1-naphthalenyl)-3-(1-pyrrolidinyl)propyl]amino]-2-oxo-1(2H)-pyrazinyl]-benzamide] | 7.9 | 
8 | Cc1ccc(C(=O)NC2CC2)cc1-n1ccnc(N2CCOC(c3ccccc3)C2)c1=O (stereo not shown) [Example 67, N-Cyclopropyl-4-methyl-3-[2-oxo-3-(2-phenyl-4-morpholinyl)-1(2H)-pyrazinyl]-benzamide] | 6.6 | 
9 | CNCCCCOc1ccccc1C(C)(C)Nc1nccn(-c2cc(C(=O)NC3CC3)ccc2C)c1=O [Example 204, N-Cyclopropyl-4-methyl-3-[3-[[1-methyl-1-[2-[4-(methylamino)butoxy]phenyl]ethyl]amino]-2-oxo-1(2H)-pyrazinyl]-benzamide] | 9.8 | 
10 | CONC(=O)c1ccc(C)c(-n2ccnc(N[C@@H](c3ccccc3)[C@@H](C)CN3CCOCC3)c2=O)c1 [Example 160, N-Methoxy-4-methyl-3-[3-[[(1R,2S)-2-methyl-3-(4-morpholinyl)-1-phenylpropyl]amino]-2-oxo-1(2H)-pyrazinyl]-benzamide] | 9.8 | 
11 | Cc1c(F)cc(C(=O)NC2CC2)cc1-n1ccnc(NC(C)(C)c2ccccc2OCCNCCC(=O)O)c1=O [Example 313, N-(2-{2-[1-({4-[5-(Cyclopropylcarbamoyl)-3-fluoro-2-methylphenyl]-3-oxo-3,4-dihydropyrazin-2-yl}amino)-1-methylethyl]phenoxy}ethyl)-beta-alanine] | 9.9 | 
12 | CNCCOc1ccccc1C(C)(C)Nc1nccn(-c2cc(C(=O)NOC)cc(F)c2C)c1=O [Example 316, 3-Fluoro-N-methoxy-4-methyl-5-{3-[(1-methyl-1-{2-[2-(methylamino)ethoxyl]phenyl}ethyl)amino]-2-oxopyrazin-1(2H)-yl}benzamide] | 10.4 | 
13 | Cc1ccc(C(=O)NC2CC2)cc1-n1ccnc(N[C@@H](c2ccccc2)[C@@H](C)CN2CCC[C@H]2C)c1=O [Example 184, N-Cyclopropyl-4-methyl-3-[3-[[(1R,2S)-2-methyl-3-[(2R)-2-methyl-1-pyrrolidinyl]-1-phenylpropyl]amino]-2-oxo-1(2H)-pyrazinyl]-benzamide] | 8.7 | 
14 | CNCCCOc1ccccc1[C@@H]1CCCN1c1nccn(-c2cc(C(=O)NC3CC3)ccc2C)c1=O (single isomer, unassigned) [Example 326] |  | 25.1 nM
15 | CNCCOc1ccccc1C(C)(C)Nc1nccn(-c2cc(C(=O)N3CCC3)ccc2C)c1=O [Example 221, 1-[4-Methyl-3-[3-[[1-methyl-1-[2-[2-(methylamino)ethoxy]phenyl]ethyl]amino]-2-oxo-1(2H)-pyrazinyl]benzoyl]-azetidine] | 6.7 | 
16 | Cc1ccc(C(=O)NC2CC2)cc1-n1ccnc(NC(C)(C)c2ccccc2OCCN2CCOCC2)c1=O [Example 203, N-Cyclopropyl-4-methyl-3-[3-[[1-methyl-1-[2-[2-(4-morpholinyl)ethoxy]phenyl]ethyl]amino]-2-oxo-1(2H)-pyrazinyl]-benzamide] | 8.9 | 
17 | COCCNCCOc1ccccc1C(C)(C)Nc1nccn(-c2cc(C(=O)NC3CC3)ccc2C)c1=O [Example 210, N-Cyclopropyl-3-[3-[[1-[2-[2-[(2-methoxyethyl)amino]ethoxy]phenyl]-1-methylethyl]amino]-2-oxo-1(2H)-pyrazinyl]-4-methyl-benzamide] | 9.5 | 
18 | Cc1ccc(C(=O)NC2CC2)cc1-n1ccnc(N[C@@H](c2ccccc2)[C@@H](C)CN2CCC3(CC2)OCCO3)c1=O [Example 179, N-Cyclopropyl-3-[3-[[(1R,2S)-3-(1,4-dioxa-8-azaspiro[4.5]dec-8-yl)-2-methyl-1-sphenylpropyl]amino]-2-oxo-1(2H)-pyrazinyl]-4-methyl-benzamide] | 8.9 | 
19 | Cc1ccc(C(=O)NC2CC2)cc1-n1ccnc(NC2(c3ccccc3OCCNCC(C)(C)CO)CC2)c1=O [Example 242, N-Cyclopropyl-3-[3-[[1-[2-[2-[(3-hydroxy-2,2-dimethylpropyl)amino]ethoxy]phenyl]cyclopropyl]amino]-2-oxo-1(2H)-pyrazinyl]-4-methyl-benzamide] | 9.7 | 

Next, values leading:

Row | pIC50 | IC50 | SMILES
20 | 6.8 |  | Cc1ccc(C(=O)NC2CC2)cc1-n1ccnc(NCc2ccc3c(c2)OCO3)c1=O [Example 32, 3-[3-[(1,3-Benzodioxol-5-ylmethyl)amino]-2-oxo-1(2H)-pyrazinyl]-N-cyclopropyl-4-methyl-benzamide]
21 | 10.1 |  | CCNC[C@H](O)COc1ccccc1C1(Nc2nccn(-c3cc(C(=O)NC4CC4)ccc3C)c2=O)CC1 [Example 303, N-cyclopropyl-3-[3-{[1-(2-{[(2S)-3-(ethylamino)-2-hydroxypropyl]oxy}phenyl)cyclopropyl]amino}-2-oxopyrazin-1(2H)-yl]-4-methylbenzamide]
22 | 10.1 |  | CNC[C@@H](O)COc1ccccc1C1(Nc2nccn(-c3cc(C(=O)NC4CC4)ccc3C)c2=O)CC1 [Example 301, N-Cyclopropyl-3-[3-{[1-(2-{[(2R)-2-hydroxy-3-(methylamino)propyl]oxy}phenyl)cyclopropyl]amino}-2-oxopyrazin-1(2H)-yl]-4-methylbenzamide]
23 | 9 |  | Cc1cccc([C@H](Nc2nccn(-c3cc(C(=O)NC4CC4)ccc3C)c2=O)[C@@H](C)CO)c1 [Example 273, N-Cyclopropyl-3-[3-[[(1R,2R)-3-hydroxy-1-(3-methylphenyl)-2-methylpropyl]amino]-2-oxo-1(2H)-pyrazinyl]-4-methyl-benzamide]
24 | 7 |  | Cc1ccc(C(=O)NC2CC2)cc1-n1ccnc(NC(C)(C)Cc2ccc(F)cc2)c1=O [Example 62, N-Cyclopropyl-3-[3-[[2-(4-fluorophenyl)-1,1-dimethylethyl]amino]-2-oxo-1(2H)-pyrazinyl]-4-methyl-benzamide]
25 | 6.9 |  | Cc1ccc(C(=O)NC2CC2)cc1-n1ccnc(NCc2cccc(C(F)(F)F)c2)c1=O [Example 93, N-Cyclopropyl-4-methyl-3-[2-oxo-3-[[[3-(trifluoromethyl)phenyl]methyl]amino]-1(2H)-pyrazinyl]-benzamide]
26 | 5.5 |  | Cc1ccc(C(=O)NC2CC2)cc1-n1ccnc(NCc2ccc(S(C)(=O)=O)cc2)c1=O [Example 25, N-Cyclopropyl-4-methyl-3-[3-[[[4-(methylsulfonyl)phenyl]methyl]amino]-2-oxo-1(2H)-pyrazinyl]-benzamide]
27 | 9.8 |  | CCC(C)NCCOc1ccccc1C1(Nc2nccn(-c3cc(C(=O)NC4CC4)ccc3C)c2=O)CC1 (stereo not shown) [Example 246, N-Cyclopropyl-4-methyl-3-[3-[[1-[2-[2-[(1-methylpropyl)amino]ethoxy]phenyl]cyclopropyl]amino]-2-oxo-1(2H)-pyrazinyl]-benzamide]
28 | 9.6 |  | CNCCCOc1ccccc1C(C)(C)Nc1nccn(-c2cc(C(=O)NC3CC3)ccc2C)c1=O [Example 164, N-Cyclopropyl-4-methyl-3-[3-[[1-methyl-1-[2-[3-(methylamino)propoxy]phenyl]ethyl]amino]-2-oxo-1(2H)-pyrazinyl]-benzamide]
29 | 9.9 |  | CCNCCOc1ccccc1C1(Nc2nccn(-c3cc(C(=O)NC4CC4)ccc3C)c2=O)CC1 [Example 168, N-Cyclopropyl-4-methyl-3-[3-[[1-[2-[2-(ethylamino)ethoxy]phenyl]cyclopropyl]amino]-2-oxo-1(2H)-pyrazinyl]-benzamide]
30 | 6.6 |  | Cc1ccc(C(=O)NC2CC2)cc1-n1ccnc(N[C@@H]2CCc3ccccc32)c1=O [Example 17, N-Cyclopropyl-3-[3-[[(1R)-2,3-dihydro-1H-inden-1-yl]amino]-2-oxo-1(2H)-pyrazinyl]-4-methyl-benzamide]
31 | 7 |  | Cc1ccc(C(=O)NC2CC2)cc1-n1ccnc(NCc2cccs2)c1=O [Example 31, N-Cyclopropyl-4-methyl-3-[2-oxo-3-[(2-thienylmethyl)amino]-1(2H)-pyrazinyl]-benzamide]
